In patent publication US20230044979A1, “ANIMAL CELL CULTURING METHOD” (AJINOMOTO CO., INC., priority 2020, published 2023):

Tests used:
CHO cells [1] = experiment: Effect of addition of L-cysteine derivatives to feed medium on proliferation of CHO cells and antibody production (3); type: cell-based, Chinese hamster; conditions: 58 mM in feed medium, 11 days culture, compared to the case without addition of L-cysteine; for cell count: FIG. 6; for antibody production amount: FIG. 7
Experimental: (§1) CELLiST (registered trademark) Basal media (Ajinomoto Co., Ltd.: BASAL3; containing 1.3 mM L-cysteine) was added with LR3-IGF-1 (SIGMA-ALDRICH: I1271-1MG, final concentration of 50 μg/mL) and L-Glutamine (Thermo Fisher SCIENTIFIC: 25030081, final concentration of 6 mM), to prepare a basal medium.
Feed media each containing 82 g/L Cellvento (registered trademark) Feed-210 (Merck: 1.02488.0005), 70 g/L glucose (Wako Pure Chemical Industries, Ltd.: 043-31163), and L-cysteine, Compound 4, Compound 8, Compound 9, or Compound 11 each at 58 mM were prepared. In addition, a feed medium without addition of L-cysteine, which only contained 82 g/L Cellvento (registered trademark) Feed-210 and 70 g/L glucose, was prepared. Separately, a tyrosine concentrate (L-tyrosine disodium salt dihydrate (Merck: 122666-87-9) 74.82 g/L, pH 11.3) was prepared.
A 30 mL-aliquot of a CHO cell suspension adjusted to 3×10^5 cells/mL using the prepared basal medium was seeded into 125 mL-volume flasks (CORNING: 431143), and cultured for 11 days. The culture was carried out with n=2 for all experimental groups. The culture temperature was 37° C. and the agitation speed was 110 rpm. A 1.8 mL-aliquot of each of the prepared feed media and a 120 μL-aliquot of the tyrosine concentrate were added on days 4, 7, and 9 from the start of the culture. A cell culture broth was sampled on days 4, 7, 9, and 11 from the start of the culture, and the viable cell count was measured using a viable/dead cells autoanalyzer Vi-CELL™ XR (Beckman Coulter), and the antibody production amount was measured using Octet QK (FORTEBIO).

[2] = Stability of L-cysteine derivatives in buffer solution (crystal precipitation by visual observation); type: physicochemical; conditions: 58 mM in PBS buffer pH 7.0 to 7.2; for relative stability compared with L-cysteine: 5° C. in the dark; for crystal precipitation, Days 0 / crystal precipitation, Days 3 / crystal precipitation, Days 7 / crystal precipitation, Days 14 / crystal precipitation, Days 21 / crystal precipitation, Days 24: stored at 5° C. in the dark; for crystal precipitation, Days 0: day 0; for crystal precipitation, Days 3: day 3; for crystal precipitation, Days 7: day 7; for crystal precipitation, Days 14: day 14; for crystal precipitation, Days 21: day 21; for crystal precipitation, Days 24: day 24
Experimental: In this Example, the stability of L-cysteine derivatives in a buffer solution was evaluated.
In the table, “+” to “++++” indicate that crystal precipitation was observed, and the higher the number of “+”, the greater the degree of precipitation.

CHO cells [3] = experiment: Effect of addition of L-cysteine derivatives to feed medium on proliferation of CHO cells and antibody production (2); type: cell-based, Chinese hamster; conditions: for proliferation performance of cells: 14.5 mM in feed medium, L-cysteine in the feed medium substituted; for proliferation performance of cells / cell count, dependence on concentration: FIG. 4; for IgG production amount: 58.0 mM in feed medium; for IgG production amount / IgG production amount, dependence on concentration: FIG. 5; for cell count, dependence on concentration / IgG production amount, dependence on concentration: 14.5, 29, 58 mM in feed medium
Experimental: as §1
Feed media each containing 82 g/L Cellvento (registered trademark) Feed-210 (Merck: 1.02488.0005), 70 g/L glucose (Wako Pure Chemical Industries, Ltd.: 043-31163), and L-cysteine, Compound 3S, or Compound 3R each at 14.5 mM, 29 mM, or 58 mM were prepared. Separately, a tyrosine concentrate (L-tyrosine disodium salt dihydrate (Merck: 122666-87-9) 74.82 g/L, pH 11.3) was prepared.
A 3 mL-aliquot of a CHO cell suspension adjusted to 3×10^5 cells/mL using the prepared basal medium was seeded into a 6 well plate (CORNING, Cat. No. CLS3471), and cultured for 14 days. The culture was carried out with n=2 for all experimental groups. The culture temperature was 37° C. and the agitation speed was 110 rpm. A 0.18 mL-aliquot of each of the prepared feed media and a 12 μL-aliquot of the tyrosine concentrate were added on days 4, 7, 9, and 11 from the start of the culture. A cell culture broth was sampled on days 4, 7, 9, 11, and 14 from the start of the culture, and the viable cell count was measured using a viable/dead cells autoanalyzer Vi-CELL™ XR (Beckman Coulter), and the antibody production amount on days 11 and 14 from the start of the culture was measured using Octet QK (FORTEBIO).

| Structure (SMILES) | cell count (CHO cells [1]) | antibody production amount (CHO cells [1]) | relative stability compared with L-cysteine [2] | crystal precipitation, Days 0 [2] | crystal precipitation, Days 3 [2] | crystal precipitation, Days 7 [2] | crystal precipitation, Days 14 [2] | crystal precipitation, Days 21 [2] | crystal precipitation, Days 24 [2] | ability to substitute for L-cysteine (CHO cells [3]; in feed medium) | proliferation performance of cells (CHO cells [3]) | IgG production amount (CHO cells [3]) | cell count, dependence on concentration (CHO cells [3]) | IgG production amount, dependence on concentration (CHO cells [3]) |
| --- | --- | --- | --- | --- | --- | --- | --- | --- | --- | --- | --- | --- | --- | --- |
| CC(C)OC(=O)C1(C)N[C@H](C(=O)O)CS1 (mixture of isomers) [Compound 4, (2RS,4R)-2-methyl-2,4-thiazolidinedicarboxylic acid 2-i-propyl ester] | higher than those of the case without addition of L-cysteine | higher than those of the case without addition of L-cysteine | more stable than L-cysteine | − | − | − | − | − | − |  |  |  |  |  |
| CC(C)(C)OC(=O)C1(C)N[C@H](C(=O)O)CS1 (mixture of isomers) [Compound 6, (2RS,4R)-2-methyl-2,4-thiazolidinedicarboxylic acid 2-t-butyl ester] |  |  | more stable than L-cysteine | − | − | − | − | − | − |  |  |  |  |  |
| CCOC(=O)C1N[C@H](C(=O)O)CS1 (mixture of isomers) [Compound 8, (2RS,4R)-2,4-thiazolidinedicarboxylic acid 2-ethyl ester] | higher than those of the case without addition of L-cysteine | higher than those of the case without addition of L-cysteine | more stable than L-cysteine | − | − | − | − | − | − |  |  |  |  |  |
| COC(=O)C1(Cc2ccc(O)cc2)N[C@H](C(=O)O)CS1 (mixture of isomers) [Compound 9, (2RS,4R)-2-(4-hydroxyphenyl)methyl-2,4-thiazolidinedicarboxylic acid 2-methyl ester] | higher than those of the case without addition of L-cysteine | higher than those of the case without addition of L-cysteine | more stable than L-cysteine | − | − | − | − | − | − |  |  |  |  |  |
| COC(=O)C1(CC(C)C)N[C@H](C(=O)O)CS1 (mixture of isomers) [Compound 11, (2RS,4R)-2-i-butyl-2,4-thiazolidinedicarboxylic acid 2-methyl ester] | decreased | decreased |  |  |  |  |  |  |  |  |  |  |  |  |
| COC(=O)[C@@]1(C)N[C@H](C(=O)O)CS1 (stereo in doubt) [Compound 3, (2RS,4R)-2-methyl-2,4-thiazolidinedicarboxylic acid 2-methyl ester] |  |  |  |  |  |  |  |  |  | able to substitute for L-cysteine |  |  |  |  |
| COC(=O)[C@]1(C)N[C@H](C(=O)O)CS1 (stereo in doubt) [Compound 3R, (2RS,4R)-2-methyl-2,4-thiazolidinedicarboxylic acid 2-methyl ester] |  |  | more stable than L-cysteine | − | − | − | − | − | − |  | approximately 70% | equivalent to that of the group adding 14.5 mM or 29.0 mM of L-cysteine hydrochloride monohydrate | increased in a concentration-dependent manner | increased in a concentration-dependent manner |
| COC(=O)[C@@]1(C)N[C@H](C(=O)O)CS1 (stereo in doubt) [Compound 3S, (2RS,4R)-2-methyl-2,4-thiazolidinedicarboxylic acid 2-methyl ester] |  |  | more stable than L-cysteine | − | − | − | − | − | − |  | approximately 70% | equivalent to that of the group adding 14.5 mM or 29.0 mM of L-cysteine hydrochloride monohydrate | increased in a concentration-dependent manner | increased in a concentration-dependent manner |
